Row | SMILES | melting point
1 | Cc1cccc(-c2nc(N(C)C(=O)c3cccnc3)sc2-c2ccnc(NC3CCCCC3)c2)c1 [H 42-8, N-[5 (2 cyclohexylamino-4-pyridyl)-4 (3 methylphenyl)-1,3 thiazol-2 yl]-N-methylnicotinamide] | 147 to 148 °C
2 | Cc1cccc(-c2nc(N(C)C(=O)c3cccnc3)sc2-c2ccnc(NC3CCCC3)c2)c1 [H 42-9, N-[5 (2 cyclopentylamino-4 pyridyl)-4 (3 methylphenyl)-1,3 thiazol-2 yl]N-methylnicotinamide] | 148 to 149 °C
3 | Cc1cccc(-c2nc(N(C)C(=O)c3ccc(Cl)nc3)sc2-c2ccnc(NC3CCCCC3)c2)c1 [H 44-4, 6 chloro-N-[5 (2-cyclohexylamino-4 pyridyl)-4 (3 methylphenyl)-1,3 thiazol-2-yl]-N-methylnicotinamide] | 171 to 172 °C
4 | COc1ccc(-c2nc(NC(=O)c3ccccc3)sc2-c2ccnc(N)c2)cc1 [H 51, N-[5 (2 amino-4 pyridyl)-4-(4 methoxyphenyl)-1,3 thiazol-2 yl]benzamide] | 219 to 222 °C
5 | Cc1cc(C)cc(-c2nc(NC(=O)Nc3ccccc3)sc2-c2cc(C)nc(C)c2)c1 [H 53-1, N-[4 (3,5 dimethylphenyl)-5 (2,6 dimethyl-4 pyridyl)-1,3 thiazol-2 yl]-N′-phenylurea] | 219 to 222 °C
6 | Cc1cccc(-c2nc(NC(=O)Nc3ccccc3)sc2-c2ccnc(NC3CCCCC3)c2)c1 [H 53-2, N-[5 (2 cyclohexylamino-4-pyridyl)-4 (3 methylphenyl)-1,3 thiazol-2 yl]-N′-phenylurea] | 198 to 199 °C
7 | Cc1cccc(-c2nc(-c3ccc([S+](C)[O-])cc3)sc2-c2cc(C)nc(C)c2)c1 (stereo not drawn) [H 55, 5 (2,6 dimethyl-4 pyridyl)-4 (3 methylphenyl)-2 (4-methylsulfinylphenyl)-1,3 thiazole] | 133 to 134 °C
8 | Cc1cc(C)cc(-c2nc(-c3ccc([S+](C)[O-])cc3)sc2-c2ccnc(C)c2)c1 (stereo not drawn) [H 56-1, 4 (3,5 dimethylphenyl)-5-(2 methyl-4 pyridyl)-2 (4 methylsulfinylphenyl)-1,3 thiazole] | 151 to 153 °C
9 | Cc1cc(C)cc(-c2nc(-c3ccc([S+](C)[O-])cc3)sc2-c2cc(C)nc(C)c2)c1 (stereo not drawn) [H 56-2, 4 (3,5 dimethylphenyl)-5-(2,6 dimethyl-4 pyridyl)-2 (4 methylsulfinylphenyl)-1,3-thiazole] | 151 to 154 °C
10 | Cc1cc(C)cc(-c2nc(-c3ccc(S(C)(=O)=O)cc3)sc2-c2ccnc(C)c2)c1 [H 58-1, 4 (3,5 dimethylphenyl)-5-(2 methyl-4 pyridyl)-2 (4 methylsulfonylphenyl)-1,3 thiazole] | 196 to 197 °C
11 | Cc1cccc(-c2nc(-c3ccc(S(C)(=O)=O)cc3)sc2-c2cc(C)nc(C)c2)c1 [H 58-2, 5 (2,6 dimethyl-4-pyridyl)-4 (3 methylphenyl)-2 (4 methylsulfonylphenyl)-1,3-thiazole] | 182 to 184 °C
12 | Cc1cc(C)cc(-c2nc(-c3ccc(S(C)(=O)=O)cc3)sc2-c2cc(C)nc(C)c2)c1 [H 58-3, 4 (3,5 dimethylphenyl)-5-(2,6 dimethyl-4 pyridyl)-2 (4 methylsulfonylphenyl)-1,3-thiazole] | 217 to 220 °C
13 | Cc1cccc(-c2nc(-c3ccc(S(C)(=O)=O)cc3)sc2-c2ccnc(F)c2)c1 [H 58-4, 5-(2-fluoro-4-pyridyl)-4-(3-methylphenyl)-2-(4-methylsulfonylphenyl)-1,3-thiazole] | 195 to 199 °C
14 | Cc1cc(-c2sc(-c3ccc(S(C)(=O)=O)cc3)nc2-c2ccc(F)cc2)ccn1 [H 58-5, 4 (4 fluorophenyl)-5 (2-methyl-4 pyridyl)-2 (4 methylsulfonylphenyl)-1,3 thiazole] | 190 to 192 °C
15 | CC(=O)Nc1cc(-c2sc(-c3ccc(S(C)(=O)=O)cc3)nc2-c2cccc(Cl)c2)ccn1 [H 58-6, N-[4-[4-(3-chlorophenyl)-2-(4-methylsulfonylphenyl)-1,3-thiazol-5-yl]-2-pyridyl]acetamide] | 216 to 217 °C
16 | CC(C)(C)C(=O)Nc1cc(-c2sc(-c3ccc(S(C)(=O)=O)cc3)nc2-c2cccc(Cl)c2)ccn1 [H 58-8, N-[4-[4-(3-chlorophenyl)-2-(4-methylsulfonylphenyl)-1,3-thiazol-5-yl]-2-pyridyl]pivalamide] | 122 to 123 °C
17 | Cc1cc(C)cc(-c2nc(-c3ccc(S(C)(=O)=O)cc3)sc2-c2cc[n+]([O-])c(C)c2)c1 [H 59, 4 [4 (3,5 dimethylphenyl)-2 (4 methylsulfonylphenyl)-1,3-thiazol-5 yl]-2 methylpyridine N-oxide] | 255 to 256 °C
18 | Cc1cccc(C2=NCSC2(c2ccnc(C)c2)N2CCOC2=O)c1 (stereo not drawn) [H 65, 3 [4 (3 methylphenyl)-5 (2 methyl-4 pyridyl)-1,3 thiazol-5-yl]-oxazolidin-2 one] | 80 to 82 °C

Now from value to compound:

Row | melting point | SMILES
19 | 261 to 262 °C | Cc1cc(-c2sc(NC(=O)c3cccnc3)nc2-c2ccc(F)cc2)ccn1 [H 42-7, N-[4 (4 fluorophenyl)-5-(2 methyl-4 pyridyl)-1,3 thiazol-2 yl]nicotinamide]
20 | 228 to 230 °C | Cc1cccc(-c2nc(NC(=O)c3ccc(Cl)nc3)sc2-c2ccnc(C)c2)c1 [H 43, 6 chloro-N-[4 (3-methylphenyl)-5 (2 methyl-4 pyridyl)-1,3 thiazol-2-yl]nicotinamide]
21 | 255 to 256 °C | Cc1cccc(-c2nc(NC(=O)c3ccc(Cl)nc3)sc2-c2ccnc(NC3CCCCC3)c2)c1 [H 44-1, 6 chloro-N-[5 (2-cyclohexylamino-4 pyridyl)-4 (3 methylphenyl)-1,3 thiazol-2-yl]nicotinamide]
22 | 211 to 212 °C | Cc1cccc(-c2nc(NC(=O)c3ccc(Cl)nc3)sc2-c2ccnc(NC3CCCC3)c2)c1 [H 44-2, 6 chloro-N-[5 (2-cyclopentylamino-4 pyridyl)-4 (3 methylphenyl)-1,3 thiazol-2-yl]nicotinamide]
23 | 233 to 234 °C | Cc1cccc(-c2nc(NC(=O)c3ccc(C)nc3)sc2-c2ccnc(C)c2)c1 [H 45, 6 methyl-N-[4 (3-methylphenyl)-5 (2 methyl-4 pyridyl)-1,3 thiazol-2-yl]nicotinamide]
24 | 242 to 243 °C | Cc1cccc(-c2nc(NC(=O)c3ccc(C)nc3)sc2-c2ccnc(NC3CCCCC3)c2)c1 [H 46-1, N-[5 (2 cyclohexylamino-4-pyridyl)-4 (3 methylphenyl)-1,3 thiazol-2 yl]-6-methylnicotinamide]
25 | 213 to 214 °C | Cc1cccc(-c2nc(NC(=O)c3ccc(C)nc3)sc2-c2ccnc(NC3CCCC3)c2)c1 [H 46-2, N-[5 (2 cyclopentylamino-4 pyridyl)-4 (3 methylphenyl)-1,3 thiazol-2 yl]-6-methylnicotinamide]
26 | 224 to 226 °C | COc1ccc(C(=O)Nc2nc(-c3cccc(C)c3)c(-c3ccnc(C)c3)s2)cn1 [H 47, 6 methoxy-N-[4 (3-methylphenyl)-5 (2 methyl-4 pyridyl)-1,3 thiazol-2-yl]nicotinamide]
27 | 191 to 192 °C | COc1ccc(C(=O)Nc2nc(-c3cccc(C)c3)c(-c3ccnc(NC4CCCCC4)c3)s2)cn1 [H 48-1, N-[5 (2 cyclohexylamino-4-pyridyl)-4 (3 methylphenyl)-1,3 thiazol-2 yl]-6-methoxynicotinamide]
28 | 219 to 221 °C | COc1ccc(C(=O)Nc2nc(-c3cccc(C)c3)c(-c3ccnc(NC4CCCC4)c3)s2)cn1 [H 48-2, N-[5 (2 cyclopentylamino-4 pyridyl)-4 (3 methylphenyl)-1,3-thiazol-2 yl]-6-methoxynicotinamide]
29 | 242 to 244 °C | COc1ccc(C(=O)Nc2nc(-c3cc(C)cc(C)c3)c(-c3ccnc(C)c3)s2)cn1 [H 48-3, N-[4-(3,5-dimethylphenyl)-5-(2-methyl-4-pyridyl)-1,3-thiazol-2-yl]-6-methoxynicotinamide]
30 | 169 to 170 °C | COc1ncccc1C(=O)Nc1nc(-c2cccc(C)c2)c(-c2ccnc(C)c2)s1 [H 49, 2 methoxy-N-[4 (3-methylphenyl)-5 (2 methyl-4 pyridyl)-1,3 thiazol-2-yl]nicotinamide]
31 | 247 to 250 °C | COc1ccc(-c2nc(NC(C)=O)sc2-c2ccnc(N)c2)cc1 [H 50, N-[5 (2 amino-4 pyridyl)-4-(4 methoxyphenyl)-1,3 thiazol-2 yl]acetamide]
32 | 173 to 174 °C | Cc1cccc(-c2sc(NC(=O)Nc3ccccc3)nc2-c2cc(C)nc(C)c2)c1 [H 52, N-[4 (2,6 dimethyl-4 pyridyl)-5 (3 methylphenyl)-1,3 thiazol-2 yl]-N′-phenylurea]
33 | 188 to 190 °C | Cc1cccc(-c2nc(NC(=O)Nc3ccccc3)sc2-c2ccnc(NC3CCCC3)c2)c1 [H 53-3, N-[5 (2 cyclopentylamino-4 pyridyl)-4 (3 methylphenyl)-1,3 thiazol-2 yl]-N′-phenylurea]
34 | 168 to 169 °C | Cc1cccc(-c2nc(NC(=O)Nc3ccccc3)sc2-c2ccnc(C)c2)c1 [H 53-4, N-[4 (3 methylphenyl)-5-(2 methyl-4 pyridyl)-1,3 thiazol-2 yl]-N′-phenylurea]
35 | 128 to 130 °C | Cc1cccc(-c2nc(-c3ccc([S+](C)[O-])cc3)sc2-c2ccnc(C)c2)c1 (stereo not drawn) [H 54, 4-(3-methylphenyl)-5-(2-methyl-4-pyridyl)-2-(4-methylsulfinylphenyl)-1,3-thiazole]
36 | 156 to 158 °C | Cc1cccc(-c2nc(NC(=O)OCCCl)sc2-c2ccnc(C)c2)c1 [H 62, 2 chloroethyl [4 (3-methylphenyl)-5 (2 methyl-4 pyridyl)-1,3 thiazol-2-yl]carbamate]
37 | 194 to 195 °C | CONC(=O)Nc1nc(-c2cccc(C)c2)c(-c2ccnc(C)c2)s1 [H 63, N-methoxy-N′-[4 (3 methylphenyl)-5 (2 methyl-4 pyridyl)-1,3-thiazol-2 yl]urea]
38 | 154 to 155 °C | Cc1cccc(-c2nc(NC(=O)NOc3ccccc3)sc2-c2ccnc(C)c2)c1 [H 64, N-[4 (3 methylphenyl)-5 (2-methyl-4 pyridyl)-1,3 thiazol-2 yl]-N′-phenyloxyurea]
39 | 200 to 201 °C | Cc1cccc(-c2nc(N3CCNC3=O)sc2-c2ccnc(C)c2)c1 [H 66, 1 [4 (3 methylphenyl)-5 (2-methyl-4 pyridyl)-1,3 thiazol-2 yl]imidazolidin-2 one]

Source: patent US20050080113A1, “Medicinal compositions” (priority 2001, published 2005)
